Where “and” joins values, the source holds several entries; their conditions need not be identical. Equal values may be shown once. Inconclusive results are not listed.
Test system: BDF1 mice, s.c. Lewis lung carcinoma, T/C %
Assay: NCI In Vivo Anticancer Drug Screen. Data for tumor model Lewis Lung Carcinoma (subcutaneous) in B6D2F1 (BDF1) mice
In short: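 First, mice carry a transplantable tumor. Next, groups receive either compound or vehicle. Finally, survival or tumor dimensions in the dosed animals are divided by the corresponding control figure.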

[1] = endpoint: median survival time, dose: 5.0 mg/kg/injection, schedule: Q01DX009 (ip), vehicle: saline, higher = longer survival
[2] = endpoint: median survival time, dose: 10.0 mg/kg/injection, schedule: Q01DX009 (ip), vehicle: saline, higher = longer survival
[3] = endpoint: median survival time, dose: 40.0 mg/kg/injection, schedule: Q01DX009 (ip), vehicle: saline, higher = longer survival
[4] = endpoint: mean tumor weight, dose: 25.0 mg/kg/injection, schedule: Q01DX011 (sc), vehicle: steriod suspending solution, higher = larger tumour
[5] = endpoint: mean tumor weight, dose: 50.0 mg/kg/injection, schedule: Q01DX011 (sc), vehicle: steriod suspending solution, higher = larger tumour
[6] = endpoint: mean tumor weight, dose: 100.0 mg/kg/injection, schedule: Q01DX011 (sc), vehicle: steriod suspending solution, higher = larger tumour
[7] = endpoint: median survival time, dose: 12.5 mg/kg/injection, schedule: Q01DX009 (ip), vehicle: other, higher = longer survival
[8] = endpoint: median survival time, dose: 25.0 mg/kg/injection, schedule: Q01DX009 (ip), vehicle: other, higher = longer survival

## CC(C)NCC(=O)c1ccc(O)c(O)c1
[1]
  T/C: 107 % of control
[2]
  T/C: 114 % of control
endpoint: median survival time, dose: 20.0 mg/kg/injection, schedule: Q01DX009 (ip), vehicle: saline, higher = longer survival
  T/C: 114 % of control
[3]
  T/C: 111 % of control

## C=C1C(=O)O[C@@H]2[C@H]3O[C@]3(C)CCC=C(C)CC[C@@H]12
endpoint: median survival time, dose: 12.5 mg/kg/injection, schedule: Q01DX009 (ip), vehicle: Klucel (hydroxypropylcellulose) (HPC), higher = longer survival
  T/C: 110 % of control
endpoint: median survival time, dose: 25.0 mg/kg/injection, schedule: Q01DX009 (ip), vehicle: Klucel (hydroxypropylcellulose) (HPC), higher = longer survival
  T/C: 97 % of control
endpoint: median survival time, dose: 50.0 mg/kg/injection, schedule: Q01DX009 (ip), vehicle: Klucel (hydroxypropylcellulose) (HPC), higher = longer survival
  T/C: 93 % of control

## c1ccc(C2=C(c3ccccc3)C(c3ccccc3)=C(c3ccccc3)C2)cc1
endpoint: mean tumor weight, dose: 118.0 mg/kg/injection, schedule: Q01DX011 (ip), vehicle: other, higher = larger tumour
  T/C: 89 % of control
endpoint: mean tumor weight, dose: 178.0 mg/kg/injection, schedule: Q01DX011 (ip), vehicle: other, higher = larger tumour
  T/C: 65 % of control
endpoint: mean tumor weight, dose: 250.0 mg/kg/injection, schedule: Q01DX011 (ip), vehicle: other, higher = larger tumour
  T/C: 92 % of control
endpoint: mean tumor weight, dose: 266.0 mg/kg/injection, schedule: Q01DX011 (ip), vehicle: other, higher = larger tumour
  T/C: 84 % of control
endpoint: mean tumor weight, dose: 400.0 mg/kg/injection, schedule: Q01DX011 (ip), vehicle: other, higher = larger tumour
  T/C: 109 % of control
endpoint: mean tumor weight, dose: 750.0 mg/kg/injection, schedule: Q01DX011 (ip), vehicle: other, higher = larger tumour
  T/C: 124 % of control
endpoint: mean tumor weight, dose: 1000.0 mg/kg/injection, schedule: Q01DX011 (ip), vehicle: other, higher = larger tumour
  T/C: 60 % of control

## COc1ccc(-c2cc(=O)c3c(OC)c(OC)c(OC)c(OC)c3o2)c(OC)c1
endpoint: mean tumor weight, dose: 12.5 mg/kg/injection, schedule: Q01DX011 (sc), vehicle: steriod suspending solution, higher = larger tumour
  T/C: 72 % of control
[4]
  T/C: 88 % of control
[5]
  T/C: 87 % of control
[6]
  T/C: 86 % of control

## Cc1ccc(C(=O)/C=C/c2ccccc2O)cc1
endpoint: median survival time, dose: 37.5 mg/kg/injection, schedule: Q01DX009 (ip), vehicle: Klucel (hydroxypropylcellulose) (HPC), higher = longer survival
  T/C: 105 % of control
endpoint: median survival time, dose: 75.0 mg/kg/injection, schedule: Q01DX009 (ip), vehicle: Klucel (hydroxypropylcellulose) (HPC), higher = longer survival
  T/C: 111 % of control
endpoint: median survival time, dose: 150.0 mg/kg/injection, schedule: Q01DX009 (ip), vehicle: Klucel (hydroxypropylcellulose) (HPC), higher = longer survival
  T/C: 108 % of control
endpoint: median survival time, dose: 300.0 mg/kg/injection, schedule: Q01DX009 (ip), vehicle: Klucel (hydroxypropylcellulose) (HPC), higher = longer survival
  T/C: 89 % of control

## C=C(CC(=O)O)C(=O)O (tested in a mixture with another compound)
endpoint: median survival time, dose: 3.12 mg/kg/injection, schedule: Q01DX009 (ip), vehicle: other, higher = longer survival
  T/C: 94 % of control
endpoint: median survival time, dose: 6.25 mg/kg/injection, schedule: Q01DX009 (ip), vehicle: other, higher = longer survival
  T/C: 101 % of control
[7]
  T/C: 103 % of control
[8]
  T/C: 88 % of control

## Cc1nn(-c2ccccc2)c(N)c1C#N
[7]
  T/C: 94 % of control
[8]
  T/C: 98 % of control and 100 % of control
endpoint: median survival time, dose: 50.0 mg/kg/injection, schedule: Q01DX009 (ip), vehicle: other, higher = longer survival
  T/C: 97 % of control
endpoint: median survival time, dose: 100.0 mg/kg/injection, schedule: Q01DX009 (ip), vehicle: other, higher = longer survival
  T/C: 100 % of control
endpoint: median survival time, dose: 200.0 mg/kg/injection, schedule: Q01DX009 (ip), vehicle: other, higher = longer survival
  T/C: 100 % of control
endpoint: median survival time, dose: 400.0 mg/kg/injection, schedule: Q01DX009 (ip), vehicle: other, higher = longer survival
  T/C: 98 % of control

## OCC1OC(n2cnc3c2NC=NC[C@H]3O)CC1O (some centres not stated)
endpoint: median survival time, dose: 0.05 mg/kg/injection, schedule: Q03HX024 (ip), vehicle: saline, higher = longer survival
  T/C: 110 % of control
endpoint: median survival time, dose: 0.1 mg/kg/injection, schedule: Q03HX024 (ip), vehicle: saline, higher = longer survival
  T/C: 86 % of control
endpoint: median survival time, dose: 0.4 mg/kg/injection, schedule: Q03HX024 (ip), vehicle: saline, higher = longer survival
  T/C: 90 % of control

## COc1cc(OC)cc(-c2cc(=O)c3c(OC)c(OC)c(OC)c(OC)c3o2)c1
[4]
  T/C: 64 % of control
[5]
  T/C: 87 % of control
[6]
  T/C: 82 % of control
endpoint: mean tumor weight, dose: 200.0 mg/kg/injection, schedule: Q01DX011 (sc), vehicle: steriod suspending solution, higher = larger tumour
  T/C: 81 % of control

## CN(C)CC(C(=O)c1ccc(Br)cc1)C(Br)c1ccccc1 (configuration not stated)
[1]
  T/C: 107 % of control
[2]
  T/C: 100 % of control
[3]
  T/C: 119 % of control

Reference: PubChem BioAssay AID270 (DTP/NCI, 2004)
